The values that follow come from patent US10696677B2 (Research Triangle Institute, priority 2016, dated 2020).

Each structure is given as a SMILES string. Bounds are passed on as bounds.

Sequence of hCB2 (P34972 whole entry): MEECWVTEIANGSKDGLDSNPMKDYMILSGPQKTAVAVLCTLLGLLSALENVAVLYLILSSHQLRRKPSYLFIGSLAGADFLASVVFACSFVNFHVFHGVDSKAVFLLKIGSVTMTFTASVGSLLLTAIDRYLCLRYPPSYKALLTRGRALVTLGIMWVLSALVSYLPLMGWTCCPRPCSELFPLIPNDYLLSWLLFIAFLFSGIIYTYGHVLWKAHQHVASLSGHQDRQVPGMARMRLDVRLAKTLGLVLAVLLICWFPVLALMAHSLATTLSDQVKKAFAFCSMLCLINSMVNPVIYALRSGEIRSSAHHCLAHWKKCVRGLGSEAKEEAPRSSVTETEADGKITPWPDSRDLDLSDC

The test system of the first data set is MDCK. In words: MDCK BBB Assay. Format: in vitro ADME. Particulars: MDCK BBB assay.
Regarding `COc1ccc(N2CCN(c3ncnc4c3nc(-c3ccccc3Cl)n4-c3ccc(Cl)cc3)CC2)cc1` [Compound 72, 8-(2-Chlorophenyl)-9-(4-chlorophenyl)-6-[4-(4-methoxyphenyl)piperazin-1-yl]-9H-purine], the “% Permeable” value was determined as 0%.
As to `N#Cc1ccccc1N1CCN(c2ncnc3c2nc(-c2ccccc2Cl)n3-c2ccc(Cl)cc2)CC1` [Compound 74, 2-{4-[8-(2-Chlorophenyl)-9-(4-chlorophenyl)-9H-purin-6-yl]piperazin-1-yl}benzonitrile], the “% Permeable” value was determined as 0%.
Still for that read-out and setting: next, `O=S(=O)(NC1CCN(c2ncnc3c2nc(-c2ccccc2Cl)n3-c2ccc(Cl)cc2)CC1)c1ccc(F)c(F)c1` [Compound 7, N-{1-[8-(2-Chlorophenyl)-9-(4-chlorophenyl)-9H-purin-6-yl]piperidin-4-yl}-3,4-difluorobenzene-1-sulfonamide]: 0%.
Take `O=C(Nc1ccccc1)NC1CCN(c2ncnc3c2nc(-c2ccccc2Cl)n3-c2ccc(Cl)cc2)CC1` [Compound 18, 3-{1-[8-(2-Chlorophenyl)-9-(4-chlorophenyl)-9H-purin-6-yl]piperidin-4-yl}-1-phenylurea]: the “% Permeable” value was determined as 0%.
In the case of `CC(C)(C)OC(=O)N1CCN(c2ncnc3c2nc(-c2ccccc2Cl)n3-c2ccc(Cl)cc2)CC1` [Compound 58, tert-Butyl 4-[8-(2-Chlorophenyl)-9-(4-chlorophenyl)-9H-purin-6-yl]piperazine-1-carboxylate], the “% Permeable” value is given as 3%.
Still for that read-out and setting: next, `Clc1ccc(-n2c(-c3ccccc3Cl)nc3c(N4CCN(c5ccccn5)CC4)ncnc32)cc1` [Compound 67, 8-(2-Chlorophenyl)-9-(4-chlorophenyl)-6-(4-pyridin-2-ylpiperazin-1-yl)-9H-purine]: 0%.
As for `Clc1ccc(CN2CCN(c3ncnc4c3nc(-c3ccccc3Cl)n4-c3ccc(Cl)cc3)CC2)cc1` [Compound 77, 6-[4-(4-Chlorobenzyl)piperazin-1-yl]-8-(2-chlorophenyl)-9-(4-chlorophenyl)-9H-purine], the “% Permeable” value was around 100%.

The data set is the same for the next values; noted with them: MDCK cells.
On to `O=S(=O)(NC1CCN(c2ncnc3c2nc(-c2ccccc2Cl)n3-c2ccc(Cl)cc2)CC1)c1ccc(F)c(F)c1` [Compound 7, N-{1-[8-(2-Chlorophenyl)-9-(4-chlorophenyl)-9H-purin-6-yl]piperidin-4-yl}-3,4-difluorobenzene-1-sulfonamide], for which the “MDCK BBB Assay (Basolateral/Apical Peak Area Ratio) Mean” value was determined as 0.

The next data set has as its target hCB2 (Homo sapiens, UniProt P34972). In words: radioligand displacement binding at CB2 ([3H]CP55940, membranes of CHO-K1 cells over-expressing receptor).
Settings: not given
`O/N=C(\c1ccc(F)cc1)C1CCN(c2ncnc3c2nc(-c2ccccc2Cl)n3-c2ccc(Cl)cc2)CC1` [Compound 28, (Z)-{1-[8-(2-chlorophenyl)-9-(4-chlorophenyl)-9H-purin-6-yl]piperidin-4-yl}(4-fluorophenyl)methanone oxime] came in with a Ki of 11 µM.
The same measure, in the same setting: next, `Cc1ccccc1CN1CCN(c2ncnc3c2nc(-c2ccccc2Cl)n3-c2ccc(Cl)cc2)CC1` [Compound 100, 8-(2-Chlorophenyl)-9-(4-chlorophenyl)-6-[4-(2-methylbenzyl)piperazin-1-yl]-9H-purine]: 1.25 µM; `N=C(Nc1ccc(F)cc1)N1CCN(c2ncnc3c2nc(-c2ccccc2Cl)n3-c2ccc(Cl)cc2)CC1` [Compound 116, 4-[8-(2-chlorophenyl)-9-(4-chlorophenyl)-9H-purin-6-yl]-N-(4-fluorophenyl)piperazine-1-carboximidamide]: above 6 µM; `CC(C)(C)OC(=O)N1CCN(c2ncnc3c2nc(-c2ccccc2Cl)n3-c2ccc(Cl)cc2)CC1` [Compound 58, tert-Butyl 4-[8-(2-Chlorophenyl)-9-(4-chlorophenyl)-9H-purin-6-yl]piperazine-1-carboxylate]: 3.35 µM.

Test system in a further data set: not given
Assay: not given
Settings: not given
Take `O=C(NC1CCN(c2ncnc3c2nc(-c2ccccc2Cl)n3-c2ccc(Cl)cc2)CC1)NC1CCC(F)(F)CC1` [Compound 124, 3-{1-[8-(2-Chlorophenyl)-9-(4-chlorophenyl)-9H-purin-6-yl]piperidin-4-yl}-1-(4,4-difluorocyclohexyl)urea]: the melting point fell in the range of 228 to 229 °C.
For the compound `FC(F)(F)c1ccccc1CN1CCN(c2ncnc3c2nc(-c2ccccc2Cl)n3-c2ccc(Cl)cc2)CC1` [Compound 111, 8-(2-Chlorophenyl)-9-(4-chlorophenyl)-6-{4-[2-(trifluoromethyl)benzyl]piperazin-1-yl}-9H-purine], the melting point was 119 to 121 °C.
On the same count and under the same terms, next, `N#Cc1ccccc1CN1CCN(c2ncnc3c2nc(-c2ccccc2Cl)n3-c2ccc(Cl)cc2)CC1` [Compound 75, 6-[4-(2-Cyanobenzyl)piperazin-1-yl]-8-(2-chlorophenyl)-9-(4-chlorophenyl)-9H-purine]: 127 to 128 °C; `O=C(NCc1ccc(F)cc1)NC1CCN(c2ncnc3c2nc(-c2ccccc2Cl)n3-c2ccc(Cl)cc2)CC1` [Compound 128, 3-{1-[8-(2-Chlorophenyl)-9-(4-chlorophenyl)-9H-purin-6-yl]piperidin-4-yl}-1-[(4-fluorophenyl)methyl]urea]: 184 to 185 °C.
The same measure, in the same setting: the value for `O=C(Nc1ccc(F)cc1F)NC1CCN(c2ncnc3c2nc(-c2ccccc2Cl)n3-c2ccc(Cl)cc2)CC1` [Compound 22, 3-{1-[8-(2-Chlorophenyl)-9-(4-chlorophenyl)-9H-purin-6-yl]piperidin-4-yl}-1-(2,4-difluorophenyl)urea] was 140 to 142 °C; that for `O=S(=O)(NC1CCN(c2ncnc3c2nc(-c2ccccc2Cl)n3-c2ccc(C(F)(F)F)nc2)CC1)c1ccc(F)c(F)c1` [Compound 10, N-{1-[8-(2-Chlorophenyl)-9-[6-(trifluoromethyl)pyridin-3-yl]-9H-purin-6-yl]piperidin-4-yl}-3,4-difluorobenzene-1-sulfonamide] was 214 to 215 °C; that for `O=C(NCC1CCC(F)(F)CC1)NC1CCN(c2ncnc3c2nc(-c2ccccc2Cl)n3-c2ccc(Cl)cc2)CC1` [Compound 127, 3-{1-[8-(2-Chlorophenyl)-9-(4-chlorophenyl)-9H-purin-6-yl]piperidin-4-yl}-1-[(4,4-difluorocyclohexyl)methyl]urea] was 135 to 137 °C.
For the compound `O=S(=O)(NC1CCN(c2ncnc3c2nc(-c2ccccc2Cl)n3-c2ccc(OC(F)F)nc2)CC1)c1ccc(F)c(F)c1` [Compound 8, N-{1-[8-(2-Chlorophenyl)-9-[6-(difluoromethoxy)pyridin-3-yl]-9H-purin-6-yl]piperidin-4-yl}-3,4-difluorobenzene-1-sulfonamide], the melting point was in the range of 212 to 213 °C.
Same read-out and setting: next, `Cn1ccc(-n2c(-c3ccccc3Cl)nc3c(N4CCC(NS(=O)(=O)c5ccc(F)c(F)c5)CC4)ncnc32)n1` [Compound 13, N-{1-[8-(2-Chlorophenyl)-9-(1-methyl-1H-pyrazol-3-yl)-9H-purin-6-yl]piperidin-4-yl}-3,4-difluorobenzene-1-sulfonamide]: 206 to 208 °C; `Cc1cc(-n2c(-c3ccccc3Cl)nc3c(N4CCC(NS(=O)(=O)c5ccc(F)c(F)c5)CC4)ncnc32)no1` [Compound 11, N-{1-[8-(2-Chlorophenyl)-9-(5-methyl-1,2-oxazol-3-yl)-9H-purin-6-yl]piperidin-4-yl}-3,4-difluorobenzene-1-sulfonamide]: 180 to 182 °C; `O=S(=O)(NC1CCN(c2ncnc3c2nc(-c2ccccc2Cl)n3-c2ccc(Cl)cc2)CC1)c1ccc(F)c(F)c1` [Compound 7, N-{1-[8-(2-Chlorophenyl)-9-(4-chlorophenyl)-9H-purin-6-yl]piperidin-4-yl}-3,4-difluorobenzene-1-sulfonamide]: 183 to 184 °C.
The same measure, in the same setting: the value for `O=C(NCC1CCCCC1)NC1CCN(c2ncnc3c2nc(-c2ccccc2Cl)n3-c2ccc(OC(F)F)nc2)CC1` [Compound 17, 3-{1-[8-(2-Chlorophenyl)-9-[6-(difluoromethoxy)pyridin-3-yl]-9H-purin-6-yl]piperidin-4-yl}-1-(cyclohexylmethyl)urea] was 141 to 143 °C; that for `O=C(Nc1ccccc1F)NC1CCN(c2ncnc3c2nc(-c2ccccc2Cl)n3-c2ccc(C(F)(F)F)nc2)CC1` [Compound 20, 3-{1-[8-(2-Chlorophenyl)-9-[6-(trifluoromethyl)pyridin-3-yl]-9H-purin-6-yl]piperidin-4-yl}-1-(2-fluorophenyl)urea] was 227 to 228 °C; that for `CCCCC(=O)NC1CCN(c2ncnc3c2nc(-c2ccccc2Cl)n3-c2ccc(C(F)(F)F)nc2)CC1` [Compound 14, N-{1-[8-(2-Chlorophenyl)-9-[6-(trifluoromethyl)pyridin-3-yl]-9H-purin-6-yl]piperidin-4-yl}pentanamide] was 192 to 193 °C.
Same read-out and setting: the value for `Cc1cc(NC(=O)N2CCN(c3ncnc4c3nc(-c3ccccc3Cl)n4-c3ccc(Cl)cc3)CC2)no1` [Compound 50] was 230 to 231 °C.
In turn, `CC1(NC(=O)NC2CCC(F)(F)CC2)CCN(c2ncnc3c2nc(-c2ccccc2Cl)n3-c2ccc(Cl)cc2)CC1` showed a melting point of 175 to 177 °C.
For `O=C(NCC1CCCCC1)NC1CCN(c2ncnc3c2nc(-c2ccccc2Cl)n3-c2ccc(C(F)(F)F)nc2)CC1` [Compound 16, 3-{1-[8-(2-Chlorophenyl)-9-[6-(trifluoromethyl)pyridin-3-yl]-9H-purin-6-yl]piperidin-4-yl}-1-(cyclohexylmethyl)urea], the melting point lay within 230 to 232 °C.
Still for that read-out and setting: next, `O=C(Nc1ccccc1F)NC1CCN(c2ncnc3c2nc(-c2ccccc2Cl)n3-c2ccc(OC(F)F)nc2)CC1` [Compound 21, 3-{1-[8-(2-Chlorophenyl)-9-[6-(difluoromethoxy)pyridin-3-yl]-9H-purin-6-yl]piperidin-4-yl}-1-(2-fluorophenyl)urea]: 140 to 142 °C; `Cc1c(CN2CCN(c3ncnc4c3nc(-c3ccccc3Cl)n4-c3ccc(Cl)cc3)CC2)cnn1C` [Compound 114, 8-(2-Chlorophenyl)-9-(4-chlorophenyl)-6-{4-[(1,5-dimethyl-1H-pyrazol-4-yl)methyl]piperazin-1-yl}-9H-purine]: 138 to 139 °C; `CC1(NC(=O)NC2CCN(c3ncnc4c3nc(-c3ccccc3Cl)n4-c3ccc(Cl)cc3)CC2)CCC(F)(F)CC1` [Compound 126, 3-{1-[8-(2-Chlorophenyl)-9-(4-chlorophenyl)-9H-purin-6-yl]piperidin-4-yl}-1-(4,4-difluoro-1-methylcyclohexyl)urea]: 160 to 162 °C.
For `O=C(Nc1ccc(C(F)(F)F)nc1)NC1CCN(c2ncnc3c2nc(-c2ccccc2Cl)n3-c2ccc(Cl)cc2)CC1` [Compound 24, 3-{1-[8-(2-Chlorophenyl)-9-(4-chlorophenyl)-9H-purin-6-yl]piperidin-4-yl}-1-[6-(trifluoromethyl)pyridin-3-yl]urea], the melting point lay within 140 to 142 °C.

The target in a further data set is hCB1 (Homo sapiens, UniProt P21554). The data set is described as follows: radioligand displacement binding at CB1 (membranes of CHO-K1 cells over-expressing receptor).
Sequence of hCB1 (P21554 whole entry): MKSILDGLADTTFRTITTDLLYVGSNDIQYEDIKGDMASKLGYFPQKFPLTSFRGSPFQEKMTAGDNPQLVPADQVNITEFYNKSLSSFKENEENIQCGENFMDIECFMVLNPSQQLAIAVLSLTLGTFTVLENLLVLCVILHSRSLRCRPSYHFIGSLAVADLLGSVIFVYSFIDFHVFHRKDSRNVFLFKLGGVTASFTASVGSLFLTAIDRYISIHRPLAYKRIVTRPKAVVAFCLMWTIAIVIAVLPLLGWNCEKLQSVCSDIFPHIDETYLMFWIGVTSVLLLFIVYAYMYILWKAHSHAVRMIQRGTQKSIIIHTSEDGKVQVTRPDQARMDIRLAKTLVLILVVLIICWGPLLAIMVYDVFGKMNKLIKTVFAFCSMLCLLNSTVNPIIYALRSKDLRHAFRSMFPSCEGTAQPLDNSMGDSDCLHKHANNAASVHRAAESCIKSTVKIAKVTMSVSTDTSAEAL
Settings: not given
Regarding `O/N=C(\c1ccc(F)cc1)C1CCN(c2ncnc3c2nc(-c2ccccc2Cl)n3-c2ccc(Cl)cc2)CC1` [Compound 28, (Z)-{1-[8-(2-chlorophenyl)-9-(4-chlorophenyl)-9H-purin-6-yl]piperidin-4-yl}(4-fluorophenyl)methanone oxime], the affinity, expressed as Ki, was 0.003 µM.
